Results as given in PMC7587356, “High-Throughput Screening for Inhibitors of the SARS-CoV-2 Protease Using a FRET-Biosensor” (Molecules, 2020).
Where two headings read alike, the source gives them in different places.

Assays:
SARS-CoV-2 3CLpro [1] = biological target: T1, SARS-CoV-2 3CLpro (Severe acute respiratory syndrome coronavirus 2, UniProt P0DTD1); experiment: biochemical; type: biochemical; conditions: for inhibition at 5 µM: 4 h
SARS-CoV-2 3CLpro [2] = biological target: T1, SARS-CoV-2 3CLpro; experiment: biochemical; type: biochemical
[3] = with 0.01% Triton X-100; mean ± SD of triplicate; 4 h, 30 °C; read-out: A) EC50 with Triton X-100
[4] = without Triton X-100; mean ± SD of triplicate; 4 h, 30 °C; read-out: B) EC50 without Triton X-100
[5] = EC50 with Triton X-100 / EC50 without Triton X-100, ratio greater than 2 suggests aggregation-based inhibitor
[6] = with 0.01% Triton X-100, read-out: EC50

| Compound | Ratio (A/B) (SARS-CoV-2 3CLpro [2]) | EC50 (SARS-CoV-2 3CLpro [2]; [3]) [nM] | EC50 (SARS-CoV-2 3CLpro [2]; [4]) [nM] | also measured |
| --- | --- | --- | --- | --- |
| Oc1cc(O)cc(/C=C/c2ccc(O)c(O)c2)c1 [Piceatannol, reference compound] | 1.3 | 569 ± 75 | 455 ± 113 | inhibition at 5 µM (SARS-CoV-2 3CLpro [1]; sheet LOPAC_screen_w_protease, primary screen at 5 µM, mean of two replicates, read-out: mean (LOPAC screen with protease)): 92.3%; inhibition at 5 µM (SARS-CoV-2 3CLpro [1]; sheet LOPAC_screen_w_protease, primary screen at 5 µM, replicate 1, read-out: Replicate_1 (LOPAC screen with protease)): 93.6%; inhibition at 5 µM (SARS-CoV-2 3CLpro [1]; sheet LOPAC_screen_w_protease, primary screen at 5 µM, replicate 2, read-out: Replicate_2 (LOPAC screen with protease)): 91.1% |
| Oc1ccccc1O [Pyrocatechol, reference compound] | 1.0 | 4040 ± 1420 | 4090 ± 1220 | mean (LOPAC screen with protease) (SARS-CoV-2 3CLpro [1]; sheet LOPAC_screen_w_protease, primary screen at 5 µM, mean of two replicates): 52.6956; Replicate_1 (LOPAC screen with protease) (SARS-CoV-2 3CLpro [1]; sheet LOPAC_screen_w_protease, primary screen at 5 µM, replicate 1): 53.9412; Replicate_2 (LOPAC screen with protease) (SARS-CoV-2 3CLpro [1]; sheet LOPAC_screen_w_protease, primary screen at 5 µM, replicate 2): 51.45 |
| C=CCN1CCc2c(cc(O)c(O)c2Br)C(c2ccccc2)C1 (stereo not drawn) [R(+)-6-Bromo-APB] |  | > 20000 | > 20000 |  |
| CN1CCc2cc(O)cc3c2[C@H]1Cc1ccc(O)c(O)c1-3 [R(−)-2-Hydroxyapomorphine] |  | 450 ± 78 | 420 ± 101 | Ratio (A/B) (SARS-CoV-2 3CLpro [2]; [5]): 1.1 |
| Br.CCCN1CCc2cc(O)cc3c2[C@H]1Cc1ccc(O)c(O)c1-3 [R(−)-2-OH-NPA, R(−)-2,10,11-Trihydroxy-N-propylnoraporphine] |  | 746 ± 91 | 715 ± 133 | Ratio (A/B) (SARS-CoV-2 3CLpro [2]; [5]): 1.0 |
| C=CCN1CCc2cccc3c2[C@H]1Cc1ccc(O)c(O)c1-3 [R(−)-N-Allylnorapomorphine] |  | 346 ± 80 | 379 ± 83 | Ratio (A/B) (SARS-CoV-2 3CLpro [2]; [5]): 0.9 |
| N[C@@H](CCC(=O)N[C@@H](CSN=O)C(=O)NCC(=O)O)C(=O)O [S-Nitrosoglutathione, reference compound] | 1.5 |  |  | inhibition at 5 µM (SARS-CoV-2 3CLpro [1]; read-out: Replicate_1 (LOPAC screen with protease)): 44.1%; inhibition at 5 µM (SARS-CoV-2 3CLpro [1]; read-out: Replicate_2 (LOPAC screen with protease)): 41.7%; inhibition at 5 µM (SARS-CoV-2 3CLpro [1]; read-out: mean (LOPAC screen with protease)): 42.9%; EC50 (SARS-CoV-2 3CLpro [2]; A) EC50 with Triton X-100): 2290 ± 245 nM; EC50 (SARS-CoV-2 3CLpro [2]; B) EC50 without Triton X-100): 1490 ± 627 nM |
| CN=c1nc(-c2ccccc2)n(-c2ccccc2)s1 [SCH-202676] |  | 274 ± 73 | 41 ± 8 | Ratio (A/B) (SARS-CoV-2 3CLpro [2]; [5]): 6.7; reduction in levels of inhibition upon addition of 0.01% Triton X-100 (SARS-CoV-2 3CLpro [2]; with vs without 0.01% Triton X-100): > 2 fold |
| CN1CCc2cc(O)c(O)cc2C(c2ccccc2)C1 (stereo not drawn) [SKF 75670] |  | 17800 ± 8360 | > 20000 |  |
| CN1CCc2c(cc(O)c(O)c2Cl)C(c2cccc(Cl)c2)C1 (stereo not drawn) [SKF 83565] |  | > 20000 | 6030 ± 3630 |  |
| C[n+]1cc2c3c(ccc2c2ccc4cc5c(cc4c21)OCO5)OCO3 [Sanguinarine] | 0.8 | 1780 ± 497 | 2240 ± 586 |  |
| Cc1ccc(S(=O)(=O)N[C@@H](CCCCN)C(=O)CCl)cc1 [TLCK, Tosyl-L-Lys chloromethyl ketone] |  | 10600 ± 881 | > 20000 | EC50 (SARS-CoV-2 3CLpro [2]; [6]): 10600 nM |
| Cc1ccc(S(=O)(=O)N[C@@H](Cc2ccccc2)C(=O)CCl)cc1 [TPCK, Tosyl-L-Phe chloromethyl ketone] | 1.8 | 1740 ± 34 | 985 ± 175 | EC50 (SARS-CoV-2 3CLpro [2]; [6]): 1740 nM |
| CC(C)N(CCC(=O)c1ccc2ccccc2c1)Cc1ccccc1 [ZM 39923] | 1.0 | 302 ± 38 | 289 ± 55 |  |
| O=C(N[C@@H](Cc1ccccc1)C(=O)CCl)OCc1ccccc1 [ZPCK, Z-L-Phe chloromethyl ketone] | 1.7 | 234 ± 85 | 136 ± 21 | EC50 (SARS-CoV-2 3CLpro [2]; [6]): 230 nM |
| C[N+](C)(C)CCC(=O)c1cccc2ccccc12 [alpha-NETA, 2-(alpha-Naphthoyl)ethyltrimethylammonium] | 0.9 | 227 ± 14 | 243 ± 51 |  |
| CC(C)C[C@H](N)CS [l-Leucinethiol] | 2.2 | 4380 ± 770 | 1950 ± 110 |  |
| Oc1ccc2c3c1O[C@H]1c4[nH]c5c(c4C[C@@]4(O)[C@@H](C2)N(CC2CC2)CC[C@]314)C[C@@]1(O)[C@H]2Cc3ccc(O)c4c3[C@@]1(CCN2CC1CC1)[C@H]5O4 [nor-Binaltorphimine] |  | 5200 ± 1160 | 2600 ± 1490 | Ratio (A/B) (SARS-CoV-2 3CLpro [2]; [5]): 2.0 |
| R(−)-Propylnorapomorphine [R(−)-NPA] | 1.0 | 426 ± 17 | 426 ± 77 |  |
